Data as given in patent US20260124214A1, “HETEROCYCLIC COMPOUNDS FOR USE IN THE TREATMENT OF CANCER” (ARTIOS PHARMA LIMITED, priority 2021, published 2026).
Where a name gives a salt, the structure may show the parent alone.

Target: T1, Human Polθ polymerase domain (aa1820-2590) (Homo sapiens, UniProt O75417)
T1 construct: Human Polθ polymerase domain (aa1820-2590) was expressed in E. Coli; made in house; host or cells: E. coli
T1 sequence (O75417 1820-2590): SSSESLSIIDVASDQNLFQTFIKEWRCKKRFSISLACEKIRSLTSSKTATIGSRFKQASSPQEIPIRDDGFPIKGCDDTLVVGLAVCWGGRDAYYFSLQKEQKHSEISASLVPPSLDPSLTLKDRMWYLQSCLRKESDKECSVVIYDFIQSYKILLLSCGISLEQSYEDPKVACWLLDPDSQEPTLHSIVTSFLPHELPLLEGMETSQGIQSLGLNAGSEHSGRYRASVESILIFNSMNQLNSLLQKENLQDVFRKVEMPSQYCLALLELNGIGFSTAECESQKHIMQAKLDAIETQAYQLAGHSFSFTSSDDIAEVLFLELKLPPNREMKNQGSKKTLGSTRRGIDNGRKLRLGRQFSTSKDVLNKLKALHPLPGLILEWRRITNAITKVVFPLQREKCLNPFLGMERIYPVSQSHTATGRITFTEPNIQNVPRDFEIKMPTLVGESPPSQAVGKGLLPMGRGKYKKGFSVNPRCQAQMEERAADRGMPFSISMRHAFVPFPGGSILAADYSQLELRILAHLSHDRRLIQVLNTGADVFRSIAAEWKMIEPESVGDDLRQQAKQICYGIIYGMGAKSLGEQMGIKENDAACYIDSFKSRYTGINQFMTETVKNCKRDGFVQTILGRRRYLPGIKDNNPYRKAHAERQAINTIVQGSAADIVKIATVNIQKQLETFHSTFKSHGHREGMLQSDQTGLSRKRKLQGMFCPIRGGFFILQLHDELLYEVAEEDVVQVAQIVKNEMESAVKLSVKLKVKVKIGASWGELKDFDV
Test: Polθ Polymerase Domain WT KI Assay (PicoGreen)
Assay type: biochemical
Settings: 100 nM DNA substrate, 0.156 nM Polθ, initial rates vs inhibitor concentration
How it was run: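 E. coli-expressed human Polθ polymerase domain (aa1820-2590) on annealed DNA II Short/Long primer-template (1.2:1), in 25 mM Tris pH 7.5, NaCl, 5% glycerol, 0.01% Triton X-100, 0.1 mg/ml BSA, 1 mM DTT, 1% DMSO. EDTA-quenched timepoints to 180 min, PicoGreen fluorescence. Initial rates vs inhibitor concentration fitted four-parameter for KI.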

Row | SMILES | Ki [nM]
1 | Cc1cc(C(F)(F)F)cc(N2C(=O)C[C@@H]3CN(C[C@H]4CCNC4)c4c(Cl)cccc4N(C)C(=O)[C@H]32)n1 [Example 100, (3aR,11aS)-6-Chloro-10-methyl-1-(6-methyl-4-(trifluoromethyl)pyridin-2-yl)-5-(((S)-pyrrolidin-3-yl)methyl)-1,3a,4,5,10,11a-hexahydro-2H-benzo[b]pyrrolo[2,3-f][1,4]diazocine-2,11(3H)-dione hydrochloride] | 1.75
2 | Cc1cc(C(F)(F)F)cc(N2C(=O)C[C@@H]3CN(CCN4CCN(C)C[C@@H]4C)c4c(C)cccc4N(C)C(=O)[C@H]32)n1 [Example 49, (3aR,11aS)-5-(2-((S)-2,4-Dimethylpiperazin-1-yl)ethyl)-6,10-dimethyl-1-(6-methyl-4-(trifluoromethyl)pyridin-2-yl)-1,3a,4,5,10,11a-hexahydro-2H-benzo[b]pyrrolo[2,3-f][1,4]diazocine-2,11(3H)-dione dihydrochloride] | 0.457
3 | Cc1cc(C(F)(F)F)cc(N2C(=O)C[C@@H]3CN(C[C@@H]4CNCCO4)c4c(Cl)cccc4N(C)C(=O)[C@H]32)n1 (racemic) [Example 109b, (3aR,11aS)-6-Chloro-10-methyl-1-(6-methyl-4-(trifluoromethyl)pyridin-2-yl)-5-(((S/R)-morpholin-2-yl)methyl)-1,3a,4,5,10,11a-hexahydro-2H-benzo[b]pyrrolo[2,3-f][1,4]diazocine-2,11(3H)-dione] | 2.02
4 | CCN(CC)CCN1C[C@H]2CC(=O)N(c3cc(C(F)(F)F)cc(C)n3)[C@@H]2C(=O)N(C)c2cccc(Cl)c21 [Example 21, (3aR,11aS)-6-Chloro-5-(2-(diethylamino)ethyl)-10-methyl-1-(6-methyl-4-(trifluoromethyl)pyridin-2-yl)-1,3a,4,5,10,11a-hexahydro-2H-benzo[b]pyrrolo[2,3-f][1,4]diazocine-2,11(3H)-dione] | 9.94
5 | Cc1cc(C(F)(F)F)cc(N2C(=O)C[C@@H]3CN(CCN4CCN(S(C)(=O)=O)CC4)c4c(Cl)cccc4N(C)C(=O)[C@H]32)n1 [Example 36, (3aR,11aS)-6-Chloro-10-methyl-1-(6-methyl-4-(trifluoromethyl)pyridin-2-yl)-5-(2-(4-(methylsulfonyl)piperazin-1-yl)ethyl)-1,3a,4,5,10,11a-hexahydro-2H-benzo[b]pyrrolo[2,3-f][1,4]diazocine-2,11(3H)-dione] | 1.25
6 | Cc1cc(C(F)(F)F)cc(N2C(=O)C[C@@H]3CN(CC4CCCN4)c4c(Cl)cccc4N(C)C(=O)[C@H]32)n1 (single isomer, unassigned) [Example 107a] | 3.91
7 | Cc1cc(C(F)(F)F)cc(N2C(=O)C[C@@H]3CN(Cc4nc5n(c4F)CCN(C)C5)c4c(C)cccc4N(C)C(=O)[C@H]32)n1 [Example 83, (3aR,11aS)-5-((3-Fluoro-7-methyl-5,6,7,8-tetrahydroimidazo[1,2-a]pyrazin-2-yl)methyl)-6,10-dimethyl-1-(6-methyl-4-(trifluoromethyl)pyridin-2-yl)-1,3a,4,5,10,11a-hexahydro-2H-benzo[b]pyrrolo[2,3-f][1,4]diazocine-2,11(3H)-dione] | 0.254
8 | COCCN1CCN(CCN2C[C@H]3CC(=O)N(c4cc(C(F)(F)F)cc(C)n4)[C@@H]3C(=O)N(C)c3cccc(Cl)c32)CC1 [Example 27, (3aR,11aS)-6-Chloro-5-(2-(4-(2-methoxyethyl)piperazin-1-yl)ethyl)-10-methyl-1-(6-methyl-4-(trifluoromethyl)pyridin-2-yl)-1,3a,4,5,10,11a-hexahydro-2H-benzo[b]pyrrolo[2,3-f][1,4]diazocine-2,11(3H)-dione] | 1.33
9 | Cc1cc(C(F)(F)F)cc(N2C(=O)C[C@@H]3CN(CCN4CCN(C(=O)[C@@H](C)O)CC4)c4c(C)cccc4N(C)C(=O)[C@H]32)n1 [Example 51, (3aR,11aS)-5-(2-(4-((R)-2-Hydroxypropanoyl)piperazin-1-yl)ethyl)-6,10-dimethyl-1-(6-methyl-4-(trifluoromethyl)pyridin-2-yl)-1,3a,4,5,10,11a-hexahydro-2H-benzo[b]pyrrolo[2,3-f][1,4]diazocine-2,11(3H)-dione hydrochloride] | 0.928
10 | Cc1cc(C(F)(F)F)cc(N2C(=O)C[C@@H]3CN(Cc4cccc(C5CN(C)C5)c4)c4c(F)cccc4N(C)C(=O)[C@H]32)n1 [Example 124, (3aR,11aS)-6-Fluoro-10-methyl-1-(6-methyl-4-(trifluoromethyl)pyridin-2-yl)-5-(3-(1-methylazetidin-3-yl)benzyl)-1,3a,4,5,10,11a-hexahydro-2H-benzo[b]pyrrolo[2,3-f][1,4]diazocine-2,11(3H)-dione] | 4.26
11 | Cc1cc(C(F)(F)F)cc(N2C(=O)C[C@@H]3CN(Cc4cccnc4)c4c(Cl)cccc4N(C)C(=O)[C@H]32)n1 [Example 95, (3aR,11aS)-6-Chloro-10-methyl-1-(6-methyl-4-(trifluoromethyl)pyridin-2-yl)-5-(pyridin-3-ylmethyl)-1,3a,4,5,10,11a-hexahydro-2H-benzo[b]pyrrolo[2,3-f][1,4]diazocine-2,11(3H)-dione] | 3.7
12 | Cc1cc(C(F)(F)F)cc(N2C(=O)C[C@@H]3CN(C[C@H]4CCNC[C@H]4C#N)c4c(Cl)cccc4N(C)C(=O)[C@H]32)n1 (relative stereo) [Example 102, (rel-cis)-4-(((3aR,11aS)-6-Chloro-10-methyl-1-(6-methyl-4-(trifluoromethyl)pyridin-2-yl)-2,11-dioxo-1,2,3,3a,4,10,11,11a-octahydro-5H-benzo[b]pyrrolo[2,3-f][1,4]diazocin-5-yl)methyl)piperidine-3-carbonitrile hydrochloride] | 1.77
13 | Cc1cc(C(F)(F)F)cc(N2C(=O)C[C@@H]3CN(C[C@@H]4CCCN4)c4c(Cl)cccc4N(C)C(=O)[C@H]32)n1 (racemic) [Example 107b, (3aR,11aS)-6-Chloro-10-methyl-1-(6-methyl-4-(trifluoromethyl)pyridin-2-yl)-5-(((S/R)-pyrrolidin-2-yl)methyl)-1,3a,4,5,10,11a-hexahydro-2H-benzo[b]pyrrolo[2,3-f][1,4]diazocine-2,11(3H)-dione] | 5.21
14 | Cc1cc(C(F)(F)F)cc(N2C(=O)C[C@@H]3CN(CC(O)CN4CCOCC4)c4c(Cl)cccc4N(C)C(=O)[C@H]32)n1 (single isomer, unassigned) [Example 133b] | 2.46
15 | Cc1cc(C(F)(F)F)cc(N2C(=O)C[C@@H]3CN(CC4CNCCO4)c4c(Cl)cccc4N(C)C(=O)[C@H]32)n1 (single isomer, unassigned) [Example 109a] | 1.11
16 | COc1cccc(N2C[C@H]3CC(=O)N(c4cc(C(F)(F)F)cc(C)n4)[C@@H]3C(=O)N(C)c3cccc(F)c32)n1 [Example 141, (3aR,11aS)-6-Fluoro-5-(6-methoxypyridin-2-yl)-10-methyl-1-(6-methyl-4-(trifluoromethyl)pyridin-2-yl)-1,3a,4,5,10,11a-hexahydro-2H-benzo[b]pyrrolo[2,3-f][1,4]diazocine-2,11(3H)-dione] | 86.3
17 | Cc1cc(C(F)(F)F)cc(N2C(=O)C[C@@H]3CN(CC4CCN(C)CC4)c4c(Cl)cccc4N(C)C(=O)[C@H]32)n1 [Example 84, (3aR,11aS)-6-Chloro-10-methyl-1-(6-methyl-4-(trifluoromethyl)pyridin-2-yl)-5-((1-methylpiperidin-4-yl)methyl)-1,3a,4,5,10,11a-hexahydro-2H-benzo[b]pyrrolo[2,3-f][1,4]diazocine-2,11(3H)-dione] | 2.54
18 | C=CCN1C[C@H]2CC(=O)N(c3cc(C(F)(F)F)cc(C)n3)[C@@H]2C(=O)N(C)c2c(F)c(F)cc(Cl)c21 [Example 6, (3aR,11aS)-5-Allyl-6-chloro-8,9-difluoro-10-methyl-1-(6-methyl-4-(trifluoromethyl)pyridin-2-yl)-1,3a,4,5,10,11a-hexahydro-2H-benzo[b]pyrrolo[2,3-f][1,4]diazocine-2,11(3H)-dione] | 5.14
19 | Cc1cc(C(F)(F)F)cc(N2C(=O)C[C@@H]3CN(CCN4CCN(C)C[C@@H]4C)c4c(Cl)cccc4N(C)C(=O)[C@H]32)n1 [Example 10, (3aR,11aS)-6-Chloro-5-(2-((S)-2,4-dimethylpiperazin-1-yl)ethyl)-10-methyl-1-(6-methyl-4-(trifluoromethyl)pyridin-2-yl)-1,3a,4,5,10,11a-hexahydro-2H-benzo[b]pyrrolo[2,3-f][1,4]diazocine-2,11(3H)-dione Hydrochloride] | 2.18
20 | Cc1cc(C(F)(F)F)cc(N2C(=O)C[C@@H]3CN(CCN4CCC(C#N)CC4)c4c(C)cccc4N(C)C(=O)[C@H]32)n1 [Example 69, 1-(2-((3aR,11aS)-6,10-Dimethyl-1-(6-methyl-4-(trifluoromethyl)pyridin-2-yl)-2,11-dioxo-1,2,3,3a,4,10,11,11a-octahydro-5H-benzo[b]pyrrolo[2,3-f][1,4]diazocin-5-yl)ethyl)piperidine-4-carbonitrile] | 1.12
